Source: patent US20040102325A1, “Phenylpropynyloxypyridine herbicides” (priority 2000, published 2004)

Columns and labels:
Type in all cases: in vivo
Setaria = experiment: Pre-emergence herbicidal action, Setaria; set-up: key: 1=total damage; 9=no action; conditions: 1000 g a.i./ha, 4 weeks, scale of nine ratings (1=total damage, 9=no action)
Source text: (§1) Monocotyledonous and dicotyledonous test plants are sown in standard soil in pots. Immediately after sowing, an aqueous suspension of the test compounds (prepared from a wettable powder (Example F3, b) according to WO 97/34485) or an emulsion of the test compounds (prepared from an emulsifiable concentrate (Example F1, c) according to WO 97/34485) is applied by spraying at an optimum rate of application (500 litres of water/ha). The test plants are then cultivated in a greenhouse under optimum conditions. After a test duration of 4 weeks, the test is evaluated in accordance with a scale of nine ratings (1=total damage, 9=no action). Ratings of from 1 to 4 (especially from 1 to 3) indicate good to very good herbicidal action. Test plants: Setaria, Panicum, Digitaria, Amaranthus, Stellaria, Veronica.

Panicum [1] = experiment: Pre-emergence herbicidal action, Panicum; conditions: 1000 g a.i./ha, 4 weeks, scale of nine ratings (1=total damage, 9=no action)
Source text: as §1

Digitaria = experiment: Pre-emergence herbicidal action, Digitaria; set-up: key: 1=total damage; 9=no action; conditions: 1000 g a.i./ha, 4 weeks, scale of nine ratings (1=total damage, 9=no action)
Source text: as §1

Amaranthus [2] = experiment: Pre-emergence herbicidal action, Amaranthus; set-up: key: 1=total damage; 9=no action; conditions: 1000 g a.i./ha, 4 weeks, scale of nine ratings (1=total damage, 9=no action)
Source text: as §1

Stellaria [3] = experiment: Pre-emergence herbicidal action, Stellaria; set-up: key: 1=total damage; 9=no action; conditions: 1000 g a.i./ha, 4 weeks, scale of nine ratings (1=total damage, 9=no action)
Source text: as §1

Veronica [4] = experiment: Pre-emergence herbicidal action, Veronica; conditions: 1000 g a.i./ha, 4 weeks, scale of nine ratings (1=total damage, 9=no action)
Source text: as §1

Panicum [5] = experiment: Post-emergence herbicidal action, Panicum; conditions: post-emergence (2- to 3-leaf stage), 1000 g a.i/ha, 2 to 3 weeks, scale of nine ratings (1=total damage, 9=no action)
Protocol: (§2) Monocotyledonous and dicotyledonous test plants are sown in standard soil in pots, and at the 2- to 3-leaf stage are sprayed with an aqueous suspension of the test compounds (prepared from a wettable powder (Example F3, b) according to WO 97/34485) or with an emulsion of the test compounds (prepared from an emulsifiable concentrate (Example F1, c) according to WO 97/34485) at an optimum rate of application of 500 litres of water/ha). The test plants are then grown on in the greenhouse under optimum conditions. After a test duration of 2 to 3 weeks, the test is evaluated in accordance with a scale of nine ratings (1=total damage, 9=no action). Ratings of from 1 to 4 (especially from 1 to 3) indicate good to very good herbicidal action. Test plants: Panicum, Euphorbia, Sida, Amaranthus, Chenopodium, Stellaria, Veronica.

Euphorbia = experiment: Post-emergence herbicidal action, Euphorbia; set-up: key: 1=total damage; 9=no action; conditions: post-emergence (2- to 3-leaf stage), 1000 g a.i/ha, 2 to 3 weeks, scale of nine ratings (1=total damage, 9=no action)
Protocol: as §2

Sida = experiment: Post-emergence herbicidal action, Sida; conditions: post-emergence (2- to 3-leaf stage), 1000 g a.i/ha, 2 to 3 weeks, scale of nine ratings (1=total damage, 9=no action)
Protocol: as §2

Amaranthus [6] = experiment: Post-emergence herbicidal action, Amaranthus; conditions: post-emergence (2- to 3-leaf stage), 1000 g a.i/ha, 2 to 3 weeks, scale of nine ratings (1=total damage, 9=no action)
Protocol: as §2

Chenopodium = experiment: Post-emergence herbicidal action, Chenopodium; set-up: key: 1=total damage; 9=no action; conditions: post-emergence (2- to 3-leaf stage), 1000 g a.i/ha, 2 to 3 weeks, scale of nine ratings (1=total damage, 9=no action)
Protocol: as §2

Stellaria [7] = experiment: Post-emergence herbicidal action, Stellaria; set-up: key: 1=total damage; 9=no action; conditions: post-emergence (2- to 3-leaf stage), 1000 g a.i/ha, 2 to 3 weeks, scale of nine ratings (1=total damage, 9=no action)
Protocol: as §2

Veronica [8] = experiment: Post-emergence herbicidal action, Veronica; conditions: post-emergence (2- to 3-leaf stage), 1000 g a.i/ha, 2 to 3 weeks, scale of nine ratings (1=total damage, 9=no action)
Protocol: as §2

CSc1cccnc1OCC#Cc1cccc(CC#N)c1 [1.047]
Setaria, herbicidal action rating (Setaria): 1
Panicum, herbicidal action rating (Panicum [1]): 2
Digitaria, herbicidal action rating (Digitaria): 1
Amaranthus, herbicidal action rating (Amaranthus [2]): 1
Stellaria, herbicidal action rating (Stellaria [3]): 1
Veronica, herbicidal action rating (Veronica [4]): 4
Panicum, herbicidal action rating (Panicum [5]): 4
Euphorbia, herbicidal action rating (Euphorbia): 1
Sida, herbicidal action rating (Sida): 3
Amaranthus, herbicidal action rating (Amaranthus [6]): 2
Chenopodium, herbicidal action rating (Chenopodium): 1
Stellaria, herbicidal action rating (Stellaria [7]): 1
Veronica, herbicidal action rating (Veronica [8]): 3
